Values quoted from earlier work in patent publication US10533225B2, “Methods and systems for monitoring, diagnosing, and treating chronic obstructive pulmonary disease” (Trustees of Boston University, priority 2012, dated 2020).

Assays:
PI3K pathway activation = details: smokers with airway epithelial cell dysplasia
[1] = test system: ER stress markers and airspace; details: mice, administration

SMILES | airway PI3K pathway activation (PI3K pathway activation) | ER stress markers [1] | airspace change [1]
O[C@H]1[C@H](O)[C@@H](O)[C@H](O)[C@@H](O)[C@H]1O [myo-inositol] | reversible | – | –
C=CC=O [acrolein] | – | increase in ER stress markers | airspace enlargement
